Structures are written as SMILES. Structures can show the parent of a compound that is named as a salt.

The results in this text go back to patent US11319315B2, “Cyclohexyl acid triazole azoles as LPA antagonists” (BRISTOL-MYERS SQUIBB COMPANY, priority 2017, dated 2022).

The test concerns the target T1, human LPA1 (Homo sapiens, UniProt Q92633).
T1 construct: expressed in transfected cells; host or cells: Chinese hamster ovary (CHO) cells
The experiment in a line: LPA1 functional antagonist assay (LPA-induced calcium flux in CHO cells overexpressing human LPA1). Format: cell-based. To be noted: inhibition of calcium flux induced by 10 nM LPA, CHO cells overexpressing human LPA1; read-out: hLPA1 IC50. Put shortly:
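CHO cells overexpressing human LPA1, dye-loaded 30 min at 37 °C, then given compound (0.08 nM–5 μM final, 0.5% DMSO) in HBSS/20 mM HEPES/0.1% fatty-acid-free BSA for 20 min at room temperature before 10 nM LPA. IC50 as 50% inhibition of LPA-evoked calcium flux, 4-parameter logistic fit.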
For orientation: Calcium assays in cells follow changes in intracellular calcium, usually with a dye or a luminescent sensor.

T1 sequence (Q92633 whole entry): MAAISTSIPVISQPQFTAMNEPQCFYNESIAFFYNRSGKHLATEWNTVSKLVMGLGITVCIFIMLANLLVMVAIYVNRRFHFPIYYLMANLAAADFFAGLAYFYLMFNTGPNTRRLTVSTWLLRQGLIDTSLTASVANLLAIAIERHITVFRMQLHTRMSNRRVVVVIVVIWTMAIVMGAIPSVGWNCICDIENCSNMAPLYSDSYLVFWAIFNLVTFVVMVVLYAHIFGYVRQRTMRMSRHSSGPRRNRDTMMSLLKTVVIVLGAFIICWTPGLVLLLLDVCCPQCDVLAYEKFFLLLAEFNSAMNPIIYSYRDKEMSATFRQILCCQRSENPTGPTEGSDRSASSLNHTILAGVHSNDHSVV

Regarding `CCCCc1nnnn1Cc1c(-c2ccc(O[C@H]3CCC[C@H](C(=O)O)C3)cn2)nnn1C` [Example 256, (1S,3S)-3-((6-(5-((5-butyl-1H-tetrazol-1-yl)methyl)-1-methyl-1H-1,2,3-triazol-4-yl)pyridin-3-yl)oxy)cyclohexane-1-carboxylic acid], the IC50 (as a rule, the midpoint of a concentration-inhibition curve) was 111 nM.

With `CCCCc1nnn(Cc2c(-c3ccc(O[C@H]4CCC[C@H](C(=O)O)C4)cn3)nnn2C)n1` [Example 257, (1S,3S)-3-((6-(5-((5-butyl-2H-tetrazol-2-yl)methyl)-1-methyl-1H-1,2,3-triazol-4-yl)pyridin-3-yl)oxy)cyclohexane-1-carboxylic acid], the IC50 turned out to be 12.5 nM.

For the molecule `Cn1nnc(-c2ccc(O[C@H]3CCC[C@H](C(=O)O)C3)cn2)c1Cn1nnnc1C1CCCC1` [Example 258, (1S,3S)-3-((6-(5-((5-cyclopentyl-1H-tetrazol-1-yl)methyl)-1-methyl-1H-1,2,3-triazol-4-yl)pyridin-3-yl)oxy)cyclohexane-1-carboxylic acid], the IC50 turned out to be 433 nM.

Consider `Cn1nnc(-c2ccc(O[C@H]3CCC[C@H](C(=O)O)C3)cn2)c1Cn1nnc(C2CCCC2)n1` [Example 259, (1S,3S)-3-((6-(5-((5-cyclopentyl-2H-tetrazol-2-yl)methyl)-1-methyl-1H-1,2,3-triazol-4-yl)pyridin-3-yl)oxy)cyclohexane-1-carboxylic acid], for which the IC50 stood at 31 nM.

For `Cc1nc(-c2nnn(C)c2Cn2ncc(CC(C)C)n2)ccc1O[C@H]1CCC[C@H](C(=O)O)C1` [Example 260, (1 S,3 S)-3-((6-(5-((4-Isobutyl-2H-1,2,3-triazol-2-yl)methyl)-1-methyl-1H-1,2,3-triazol-4-yl)-2-methylpyridin-3-yl)oxy)cyclohexane-1-carboxylic acid], the IC50 was 35 nM.

With `Cc1nc(-c2nnn(C)c2Cn2nncc2CC(C)C)ccc1O[C@H]1CCC[C@H](C(=O)O)C1` [Example 261, (1S,3S)-3-((6-(5-((5-isobutyl-1H-1,2,3-triazol-1-yl)methyl)-1-methyl-1H-1,2,3-triazol-4-yl)-2-methyl-pyridin-3-yl)oxy)cyclohexane-1-carboxylic acid], the IC50 stood at 115 nM.

Regarding `Cc1nc(-c2nnn(C)c2Cn2cc(CC(C)C)nn2)ccc1O[C@H]1CCC[C@H](C(=O)O)C1` [Example 262, (1S,3S)-3-((6-(5-((4-isobutyl-1H-1,2,3-triazol-1-yl)methyl)-1-methyl-1H-1,2,3-triazol-4-yl)-2-methylpyridin-3-yl)oxy)cyclohexane-1-carboxylic acid], the IC50 was determined as 86 nM.

For the molecule `Cc1nc(-c2nnn(C)c2Cn2nncc2CC2CC2)ccc1O[C@H]1CCC[C@H](C(=O)O)C1` [Example 263, (1S,3S)-3-((6-(5-((5-(cyclopropyl-methyl)-1H-1,2,3-triazol-1-yl)-methyl)-1-methyl-1H-1,2,3-triazol-4-yl)-2-methylpyridin-3-yl)oxy)-cyclohexane-1-carboxylic acid], the IC50 came out at 41 nM.

For the molecule `Cc1nc(-c2nnn(C)c2Cn2ncc(CC3CC3)n2)ccc1O[C@H]1CCC[C@H](C(=O)O)C1` [Example 264, (1S,3S)-3-((6-(5-((4-(cyclopropyl-methyl)-2H-1,2,3-triazol-2-yl)methyl)-1-methyl-1H-1,2,3-triazol-4-yl)-2-methylpyridin-3-yl)oxy)cyclohexane-1-carboxylic acid], the IC50 is 14 nM.

For `Cc1nc(-c2nnn(C)c2Cn2cc(CC3CC3)nn2)ccc1O[C@H]1CCC[C@H](C(=O)O)C1` [Example 265, (1S,3S)-3-((6-(5-((4-(cyclopropyl-methyl)-1H-1,2,3-triazol-1-yl)methyl)-1-methyl-1H-1,2,3-triazol-4-yl)-2-methylpyridin-3-yl)oxy)cyclohexane-1-carboxylic acid], the half-inhibitory concentration (IC50) came to 40 nM.

Consider `Cc1nc(-c2nnn(C)c2Cn2ncc(C3CC3)n2)ccc1O[C@H]1CCC[C@H](C(=O)O)C1` [Example 266, (1S,3S)-3-((6-(5-((4-cyclopropyl-2H-1,2,3-triazol-2-yl)methyl)-1-methyl-1H-1,2,3-triazol-4-yl)-2-methyl-pyridin-3-yl)oxy)cyclohexane-1-carboxylic acid], for which the IC50 came to 90 nM.

Consider `Cc1nc(-c2nnn(C)c2Cn2cc(C3CC3)nn2)ccc1O[C@H]1CCC[C@H](C(=O)O)C1` [Example 267, (1S,3S)-3-((6-(5-((4-cyclopropyl-1H-1,2,3-triazol-1-yl)methyl)-1-methyl-1H-1,2,3-triazol-4-yl)-2-methylpyridin-3-yl)oxy)cyclohexane-1-carboxylic acid], for which the IC50 came out at 2210 nM.

Take `Cc1nc(-c2nnn(C)c2Cn2nncc2C2CC2)ccc1O[C@H]1CCC[C@H](C(=O)O)C1` [Example 268, (1S,3S)-3-((6-(5-((5-cyclopropyl-1H-1,2,3-triazol-1-yl)methyl)-1-methyl-1H-1,2,3-triazol-4-yl)-2-methyl-pyridin-3-yl)oxy)cyclohexane-1-carboxylic acid]: the IC50 was 301 nM.

Take `CCCc1cn(Cc2c(-c3ccc(O[C@H]4CCC[C@H](C(=O)O)C4)c(C)n3)nnn2C)nn1` [Example 269, (1 S,3S)-3-((2-methyl-6-(1-methyl-5-((4-propyl-1H-1,2,3-triazol-1-yl)methyl)-1H-1,2,3-triazol-4-yl)pyridin-3-yl)oxy)cyclohexane-1-carboxylic acid]: the IC50 was 76 nM.

For `CCCc1cnn(Cc2c(-c3ccc(O[C@H]4CCC[C@H](C(=O)O)C4)c(C)n3)nnn2C)n1` [Example 270, (1S,3S)-3-((2-methyl-6-(1-methyl-5-((4-propyl-2H-1,2,3-triazol-2-yl)methyl)-1H-1,2,3-triazol-4-yl)pyridin-3-yl)oxy)cyclohexane-1-carboxylic acid], the IC50 was 61 nM.

Take `C=C(C)c1cnn(Cc2c(-c3ccc(O[C@H]4CCC[C@H](C(=O)O)C4)c(C)n3)nnn2C)n1` [Example 271, (1S,3 S)-3-((2-methyl-6-(1-methyl-5-((4-(prop-1-en-2-yl)-2H-1,2,3-triazol-2-yl)methyl)-1H-1,2,3-triazol-4-yl)pyridin-3-yl)oxy)cyclohexane-1-carboxylic acid]: the IC50 came out at 136 nM.

In the case of `Cc1nc(-c2nnn(C)c2Cn2ncc(C(C)C)n2)ccc1O[C@H]1CCC[C@H](C(=O)O)C1` [Example 272, (1S,3S)-3-((6-(5-((4-isopropyl-2H-1,2,3-triazol-2-yl)methyl)-1-methyl-1H-1,2,3-triazol-4-yl)-2-methylpyridin-3-yl)oxy)cyclohexane-1-carboxylic acid], the IC50 came out at 35 nM.

As to `Cc1nc(-c2nnn(C)c2Cn2ncc(-c3ccccc3)n2)ccc1O[C@H]1CCC[C@H](C(=O)O)C1` [Example 273, (1 S,3S)-3-((2-methyl-6-(1-methyl-5-((4-phenyl-2H-1,2,3-triazol-2-yl)methyl)-1H-1,2,3-triazol-4-yl)pyridin-3-yl)oxy)cyclohexane-1-carboxylic acid], the IC50 came out at 57 nM.

Consider `Cc1nc(-c2nnn(C)c2Cn2sc(C3CC3)nc2=N)ccc1O[C@H]1CCC[C@H](C(=O)O)C1` [Example 274, (1 S,3 S)-3-((6-(5-((5-cyclopropyl-3-imino-1,2,4-thiadiazol-2(3H)-yl)methyl)-1-methyl-1H-1,2,3-triazol-4-yl)-2-methylpyridin-3-yl)oxy)cyclohexane-1-carboxylic acid], for which the IC50 is 1000 nM.

For the molecule `CCCCc1nc(Nc2c(-c3ccc(O[C@H]4CCC[C@H](C(=O)O)C4)c(C)n3)nnn2C)no1` [Example 275, (1 S,3 S)-3-((6-(5-((5-Butyl-1,2,4-oxadiazol-3-yl)amino)-1-methyl-1H-1,2,3-triazol-4-yl)-2-methylpyridin-3-yl)oxy)cyclohexane-1-carboxylic acid, 2 TFA salt], the half-maximal inhibitory concentration (IC50) came to 18 nM.

On to `Cc1nc(-c2nnn(C)c2Nc2nnc(CC3CC3)o2)ccc1O[C@H]1CCC[C@H](C(=O)O)C1` [Example 276, (1 S,3S)-3-((6-(5-((5-(Cyclopropylmethyl)-1,3,4-oxadiazol-2-yl)amino)-1-methyl-1H-1,2,3-triazol-4-yl)-2-methylpyridin-3-yl)oxy)cyclohexane-1-carboxylic acid, 2 TFA salt], for which the IC50 was 446 nM.

For the molecule `Cc1nc(-c2nnn(C)c2Nc2noc(CC3CC3)n2)ccc1O[C@H]1CCC[C@H](C(=O)O)C1` [Example 277, (1S,3S)-3-{[6-(5-{[5-(Cyclo-propylmethyl)-1,2,4-oxadiazol-3-yl]amino}-1-methyl-1H-1,2,3-triazol-4-yl)-2-methylpyridin-3-yl]oxy}cyclohexane-1-carboxylic acid, bis TFA salt], the IC50 was 33 nM.

Take `Cc1nc(-c2nnn(C)c2CNc2noc(CCC3CCC3)n2)c(F)cc1O[C@H]1CCC[C@H](C(=O)O)C1` [Example 278, (1S,3S)-3-((6-(5-(((5-(2-cyclobutylethyl)-1,2,4-oxadiazol-3-yl)amino)methyl)-1-methyl-1H-1,2,3-triazol-4-yl)-5-fluoro-2-methylpyridin-3-yl)oxy)cyclohexane-1-carboxylic acid]: the IC50 was found to be 30 nM.

`Cc1nc(-c2nnn(C)c2CNc2noc(CCC3CC3)n2)c(F)cc1O[C@H]1CCC[C@H](C(=O)O)C1` [Example 279, (1S,3S)-3-((6-(5-(((5-(2-cyclopropyl-ethyl)-1,2,4-oxadiazol-3-yl)amino)methyl)-1-methyl-1H-1,2,3-triazol-4-yl)-5-fluoro-2-methylpyridin-3-yl)oxy)cyclohexane-1-carboxylic acid]: the 50% inhibitory concentration (IC50) turned out to be 51 nM.

For `CCCCc1nc(NCc2c(-c3nc(C)c(O[C@H]4CCC[C@H](C(=O)O)C4)cc3F)nnn2C)no1` [Example 280, (1S,3S)-3-((6-(5-(((5-butyl-1,2,4-oxadiazol-3-yl)amino)methyl)-1-methyl-1H-1,2,3-triazol-4-yl)-5-fluoro-2-methylpyridin-3-yl)oxy)cyclohexane-1-carboxylic acid], the concentration for half-maximal inhibition (IC50) was 143 nM.
